pIC50: −log10 of the molar value. Values joined by “and” are separate entries in the source; they are usually repeats but may differ in a detail not shown here. Equal values may be shown once. Where a SMILES comes first, the peptide text is derived from it. The star is where a group is joined. Cbz = O=C(OCc1ccccc1)*

The values below come from ChEMBL document CHEMBL1201861, “Genomics of Drug Sensitity in Cancer screening data, Wellcome Trust Sanger Institute”.

One experiment concerns YT. Nature of the experiment: cells. The format is functional, cell-based, Homo sapiens.
Another experiment relates to SNU-C1. Kind of experiment: cells. The format is functional, cell-based, Homo sapiens.
For another experiment, the system named is OPM-2. Nature of the experiment: cells. Type of experiment: functional, cell-based, Homo sapiens.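 Further: growth of OPM-2 cells measured with a viability assay, IC50 for suppression of proliferation.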
Another experiment concerns BC1 cell line. Nature of the experiment: SANGER: Inhibition of human BC-1 cell growth in a cell viability assay. Type of experiment: functional, cell-based.
Another experiment concerns MFH-ino. Kind of experiment: cells. Type of experiment: functional, cell-based, Homo sapiens.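 Further: growth inhibition of human MFH-ino cells, read out by a cell viability assay.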
For the next experiment, the system named is CHP-126. Kind of experiment: cells. The format is functional, cell-based, Homo sapiens.
The test system of the next experiment is SK-MM-2. Nature of the experiment: cells. Type of experiment: functional, cell-based, Homo sapiens.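 Further: growth inhibition of human SK-MM-2 cells, read out with a cell viability assay.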
The subject of a further experiment is NCI-H64. Nature of the experiment: cells. Type of experiment: functional, cell-based, Homo sapiens.
The next experiment has as its system RL95-2. Kind of experiment: cells. The format is functional, cell-based, Homo sapiens.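 Further: RL95-2 growth inhibition determined through a cell viability readout.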
The test system of a further experiment is MHH-CALL-2. Nature of the experiment: cells. The format is functional, cell-based, Homo sapiens.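 Further: growth inhibition of the cell line, read out in a cell viability assay.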
A further experiment deals with RL. Kind of experiment: cells. The format is functional, cell-based, Homo sapiens.
The next experiment concerns HuTu80. Kind of experiment: cells. Type of experiment: functional, cell-based, Homo sapiens, HUTU-80.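 Further: growth inhibition of HuTu80 human cells, determined with a cell viability readout.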
For the next experiment, the system named is DMS-153. Kind of experiment: cells. The format is functional, cell-based, Homo sapiens.
For another experiment, the system named is NB1. Kind of experiment: cells. Type of experiment: functional, cell-based, Homo sapiens.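 Further: reduction of NB1 cell proliferation, read out with a viability assay.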
The next experiment relates to NCI-H2081. Nature of the experiment: cells. The format is functional, cell-based, Homo sapiens.
A further experiment has as its system MRK-nu-1. Kind of experiment: cells. Type of experiment: functional, cell-based, Homo sapiens.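 Further: cell viability assay measuring growth suppression of human MRK-nu-1 cells.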
The test system of a further experiment is KMOE-2. Nature of the experiment: cells. Type of experiment: functional, cell-based, Homo sapiens.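 Further: growth inhibition of human KMOE-2 cells, read out with a cell viability assay.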

Description for CHP-126: SANGER: Inhibition of human CHP-126 cell growth in a cell viability assay.
Description for DMS-153: SANGER: Inhibition of human DMS-153 cell growth in a cell viability assay.
Description for HuTu80: SANGER: Inhibition of human HUTU-80 cell growth in a cell viability assay.
Description for KMOE-2: SANGER: Inhibition of human KMOE-2 cell growth in a cell viability assay.
Description for MFH-ino: SANGER: Inhibition of human MFH-ino cell growth in a cell viability assay.
Description for MHH-CALL-2: SANGER: Inhibition of human MHH-CALL-2 cell growth in a cell viability assay.
Description for MRK-nu-1: SANGER: Inhibition of human MRK-nu-1 cell growth in a cell viability assay.
Description for NB1: SANGER: Inhibition of human NB1 cell growth in a cell viability assay.
Description for NCI-H2081: SANGER: Inhibition of human NCI-H2081 cell growth in a cell viability assay.
Description for NCI-H64: SANGER: Inhibition of human NCI-H64 cell growth in a cell viability assay.
Description for OPM-2: SANGER: Inhibition of human OPM-2 cell growth in a cell viability assay.
Description for RL95-2: SANGER: Inhibition of human RL95-2 cell growth in a cell viability assay.
Description for SK-MM-2: SANGER: Inhibition of human SK-MM-2 cell growth in a cell viability assay.
Description for SNU-C1: SANGER: Inhibition of human SNU-C1 cell growth in a cell viability assay.
Description for YT: SANGER: Inhibition of human YT cell growth in a cell viability assay.

Take `C=CC(=O)N1CCCC(Nc2nc(Nc3ccc(N(C)C(=O)CC)cc3)nc3[nH]cnc23)C1` (stereo not drawn): the negative-log IC50 (pIC50) (as a rule, the negative decadic logarithm of the IC50, by convention in mol/L) was below 4.99 in the experiment on YT (Homo sapiens, YT); below 4.99 in the experiment on SNU-C1 (Homo sapiens, SNU-C1); below 4.99 in the experiment with OPM-2 (Homo sapiens, OPM-2); below 4.99 with BC1 cell line (Homo sapiens, BC1); below 4.99 in the experiment with MFH-ino (Homo sapiens, MFH-ino); below 4.99 in the experiment with CHP-126 (Homo sapiens, CHP-126). For the same compound, the pIC50 is below 4.99 in the experiment on SK-MM-2 (Homo sapiens, SK-MM-2); below 4.99 with NCI-H64 (Homo sapiens, NCI-H64); below 4.99 in the experiment on RL95-2 (Homo sapiens, RL95-2); below 4.99 in the experiment on MHH-CALL-2 (Homo sapiens, MHH-CALL-2); below 4.99 in the experiment with RL (Homo sapiens, RL); below 4.99 in the experiment with HuTu80 (Homo sapiens, HuTu80). Further, the pIC50 in the experiment on DMS-153 (Homo sapiens, DMS-153) is below 4.99; in the experiment on NB1 (Homo sapiens, NB1) it was below 4.99; in the experiment on NCI-H2081 (Homo sapiens, NCI-H2081), below 4.99; with MRK-nu-1 (Homo sapiens, MRK-nu-1), below 4.99; with KMOE-2 (Homo sapiens, KMOE-2), below 4.99.

In the case of `NC(=O)c1cccc(-c2cc(Nc3ccc(OC(F)(F)F)cc3)ncn2)c1`, the pIC50 in the experiment on YT (Homo sapiens, YT) was below 5.89; with SNU-C1 (Homo sapiens, SNU-C1), below 5.89; in the experiment with OPM-2 (Homo sapiens, OPM-2) it was below 5.89; in the experiment on BC1 cell line (Homo sapiens, BC1) it was below 5.89; in the experiment with MFH-ino (Homo sapiens, MFH-ino) it was below 5.89; with CHP-126 (Homo sapiens, CHP-126) it was below 5.89. For the same compound, the negative logarithm of the IC50 (pIC50) in the experiment with SK-MM-2 (Homo sapiens, SK-MM-2) is below 5.89; in the experiment on NCI-H64 (Homo sapiens, NCI-H64), below 5.89; in the experiment with RL95-2 (Homo sapiens, RL95-2) it was below 5.89; in the experiment with MHH-CALL-2 (Homo sapiens, MHH-CALL-2), below 5.89; with RL (Homo sapiens, RL) it was below 5.89; in the experiment with HuTu80 (Homo sapiens, HuTu80), below 5.89. Also, the pIC50 in the experiment with DMS-153 (Homo sapiens, DMS-153) was below 5.89; with NB1 (Homo sapiens, NB1), below 5.89; in the experiment on NCI-H2081 (Homo sapiens, NCI-H2081), below 5.89; with MRK-nu-1 (Homo sapiens, MRK-nu-1) it was below 5.89; with KMOE-2 (Homo sapiens, KMOE-2), below 5.89.

With `COc1cc(N2CCC(N3CCN(C)CC3)CC2)ccc1Nc1ncc(Cl)c(Nc2ccccc2S(=O)(=O)C(C)C)n1` [TAE-684], the pIC50 with YT (Homo sapiens, YT) is below 5.70; in the experiment on SNU-C1 (Homo sapiens, SNU-C1), below 5.70; with OPM-2 (Homo sapiens, OPM-2), 6.64; with BC1 cell line (Homo sapiens, BC1) it was below 5.70; in the experiment with MFH-ino (Homo sapiens, MFH-ino), 6.49; in the experiment with CHP-126 (Homo sapiens, CHP-126), 6.07. Further, the pIC50 was 6.38 in the experiment with SK-MM-2 (Homo sapiens, SK-MM-2); below 5.70 in the experiment on NCI-H64 (Homo sapiens, NCI-H64); 6.30 in the experiment on RL95-2 (Homo sapiens, RL95-2); 7.53 in the experiment on MHH-CALL-2 (Homo sapiens, MHH-CALL-2); below 5.70 with RL (Homo sapiens, RL); 6.32 in the experiment on HuTu80 (Homo sapiens, HuTu80). Further, the pIC50 in the experiment on DMS-153 (Homo sapiens, DMS-153) was below 5.70; in the experiment on NB1 (Homo sapiens, NB1), above 8.11; in the experiment with NCI-H2081 (Homo sapiens, NCI-H2081), below 5.70; in the experiment on MRK-nu-1 (Homo sapiens, MRK-nu-1), below 5.70; in the experiment with KMOE-2 (Homo sapiens, KMOE-2), below 5.70.

For the compound `Cc1cc(N2CCOCC2)cc2[nH]c(-c3c(NC[C@@H](O)c4cccc(Cl)c4)cc[nH]c3=O)nc12`, the pIC50 is below 5.29 in the experiment with YT (Homo sapiens, YT); 5.60 in the experiment on SNU-C1 (Homo sapiens, SNU-C1); 6.28 in the experiment with OPM-2 (Homo sapiens, OPM-2); below 5.29 in the experiment on BC1 cell line (Homo sapiens, BC1); 6.46 in the experiment with MFH-ino (Homo sapiens, MFH-ino); below 5.29 in the experiment on CHP-126 (Homo sapiens, CHP-126). Also, the pIC50 in the experiment on SK-MM-2 (Homo sapiens, SK-MM-2) was 6.20; with NCI-H64 (Homo sapiens, NCI-H64), below 5.29; with RL95-2 (Homo sapiens, RL95-2), 6.09; in the experiment on MHH-CALL-2 (Homo sapiens, MHH-CALL-2) it was below 5.29; in the experiment on RL (Homo sapiens, RL), below 5.29; in the experiment on HuTu80 (Homo sapiens, HuTu80) it was 6.33. In addition, the pIC50 in the experiment with DMS-153 (Homo sapiens, DMS-153) was below 5.29; with NB1 (Homo sapiens, NB1), below 5.29; in the experiment with NCI-H2081 (Homo sapiens, NCI-H2081), below 5.29; in the experiment on MRK-nu-1 (Homo sapiens, MRK-nu-1) it was below 5.29; in the experiment with KMOE-2 (Homo sapiens, KMOE-2) it was below 5.29.

In the case of `COc1ccc(N(C(=O)Oc2c(C)cccc2C)c2ccnc(Nc3ccc(N4CCN(C)CC4)cc3)n2)c(OC)c1`, the pIC50 was below 5.29 in the experiment on YT (Homo sapiens, YT); below 5.29 in the experiment with SNU-C1 (Homo sapiens, SNU-C1); below 5.29 in the experiment on OPM-2 (Homo sapiens, OPM-2); below 5.29 in the experiment on BC1 cell line (Homo sapiens, BC1); 6.62 in the experiment on MFH-ino (Homo sapiens, MFH-ino); below 5.29 in the experiment on CHP-126 (Homo sapiens, CHP-126). The pIC50 was below 5.29 in the experiment on SK-MM-2 (Homo sapiens, SK-MM-2); below 5.29 in the experiment on NCI-H64 (Homo sapiens, NCI-H64); 5.88 with RL95-2 (Homo sapiens, RL95-2); below 5.29 in the experiment with MHH-CALL-2 (Homo sapiens, MHH-CALL-2); below 5.29 in the experiment with RL (Homo sapiens, RL); 6.76 with HuTu80 (Homo sapiens, HuTu80). Also, the pIC50 in the experiment with DMS-153 (Homo sapiens, DMS-153) is below 5.29; in the experiment with NB1 (Homo sapiens, NB1) it was below 5.29; in the experiment with NCI-H2081 (Homo sapiens, NCI-H2081), below 5.29; in the experiment with MRK-nu-1 (Homo sapiens, MRK-nu-1) it was 5.33; in the experiment on KMOE-2 (Homo sapiens, KMOE-2) it was below 5.29.

Take `Cc1ccc(NC(=O)c2ccc(CN3CCN(C)CC3)cc2)cc1Nc1nccc(-c2cccnc2)n1` [IMATINIB]: the pIC50 in the experiment on YT (Homo sapiens, YT) is below 5.70; in the experiment on SNU-C1 (Homo sapiens, SNU-C1) it was below 5.70; in the experiment on OPM-2 (Homo sapiens, OPM-2), below 5.70; in the experiment with BC1 cell line (Homo sapiens, BC1), below 5.70; in the experiment on MFH-ino (Homo sapiens, MFH-ino), below 5.70; in the experiment on CHP-126 (Homo sapiens, CHP-126), below 5.70. In addition, the negative logarithm of the IC50 (pIC50) in the experiment on SK-MM-2 (Homo sapiens, SK-MM-2) was below 5.70; in the experiment on NCI-H64 (Homo sapiens, NCI-H64), below 5.70; with RL95-2 (Homo sapiens, RL95-2), below 5.70; with MHH-CALL-2 (Homo sapiens, MHH-CALL-2) it was below 5.70; with RL (Homo sapiens, RL), below 5.70; with HuTu80 (Homo sapiens, HuTu80), below 5.70. Also, the pIC50 was below 5.70 with DMS-153 (Homo sapiens, DMS-153); below 5.70 with NB1 (Homo sapiens, NB1); below 5.70 in the experiment with NCI-H2081 (Homo sapiens, NCI-H2081); below 5.70 in the experiment with MRK-nu-1 (Homo sapiens, MRK-nu-1); below 5.70 with KMOE-2 (Homo sapiens, KMOE-2).

In the case of `CC(C)C[C@@H](C=O)NC(=O)[C@H](CC(C)C)NC(=O)[C@H](CC(C)C)NC(=O)OCc1ccccc1` [MG-132] (Cbz-Leu-Leu-Leu-aldehyde), the negative-log IC50 (pIC50) with YT (yt) was below 6.00; in the experiment on SNU-C1 (snu-c1), below 6.00; in the experiment on OPM-2 (opm-2) it was 6.98 and 6.12; in the experiment with BC1 cell line (Homo sapiens, BC1), below 6.00; in the experiment with BC1 cell line (bc1), below 6.00; with MFH-ino (mfh-ino), < 6.00 and 6.95. The pIC50 with CHP-126 (chp-126), in the experiment on SK-MM-2 (sk-mm-2), with NCI-H64 (nci-h64), in the experiment with RL95-2 (rl95-2), in the experiment with MHH-CALL-2 (mhh-call-2) and in the experiment on RL (rl) was below 6.00 in each case. For the same compound, the pIC50 in the experiment with HuTu80 (Homo sapiens, HuTu80) is below 6.00; in the experiment with HuTu80 (hutu-80) it was below 6.00; in the experiment on DMS-153 (Homo sapiens, DMS-153) it was below 6.00; with DMS-153 (dms-153) it was below 6.00; in the experiment on NB1 (nb1), below 6.00; in the experiment with NCI-H2081 (nci-h2081), below 6.00. In addition, the negative-log IC50 (pIC50) with MRK-nu-1 (mrk-nu-1) is below 6.00; in the experiment on KMOE-2 (Homo sapiens, KMOE-2) it was below 6.00; in the experiment with KMOE-2 (kmoe-2), below 6.00.
